Assay results published in US11045486B2, “Therapeutic method and therapeutic agent for atopic dermatitis in animals” (priority 2015, dated 2021).
Entries after “also recorded” stand apart in the source; their conditions may differ.

Key:
canine atopic dermatitis [1] = experiment: CADLI index (skin lesion score) in dogs with atopic dermatitis before and after drug administration; format: in vivo, dog; conditions: for effect of improving clinical symptoms of canine atopic dermatitis: 127 dogs, single agents 30 days each, combination up to 60 days, compared with before administration; for CADLI score, average value and standard error / CADLI score, average value (standard error): 30-days administration; for CADLI score, average value (standard error): all 127 dogs, oral with meals every 12 hours (RXM 5 mg/kg, PTX 25 mg/kg), prior to administration 33.17
Excerpt: The CADLI index used in the present specification is an index representing the skin condition of atopic dermatitis, and the skin condition of the five parts of the body is scored by estimating erythema, scratch, erosion, alopecia, lichenification, hyperpigmentation (Non-Patent Document 14). Therefore, the highest point is 50 points, and closer to 50 points the skin inflammation is becoming more severe. […] This figure decreased to 12.04±1.11 after 30 days of dosing and 6.51±1.51 after 60 days, and it was remarkable for all 127 cases (100%). To be able to obtain remission of symptoms with high probability. […] Target animals: For five years from 2010 to 2015, at Gotofu Animal Hospital (1-1-3, […], Fukuoka City, Fukuoka Prefecture), among dogs diagnosed as atopic dermatitis of dogs by diagnostic criteria announced by Dr. Favrot in 2010 (non patent literature 15), the examinations were conducted for 127 dogs for which the consent and cooperation of treatment were obtained from the family and whose sum of SQK were larger than the sum of SLK of the 5 parts, whose SLK and SQK value were calculated for 5 parts of the neck, the fossa, the back, the forearm, and the lower leg. As content of implementation items, in all 127 cases, roxithromycin was administered as a single agent for 30 days, and pentoxifylline was administered as a single agent for the next 30 days. During the last 60 days, roxithromycin and pentoxifylline were administered in combination. The constituent of the targeted dog type is as shown in (Table 1). The constituent of the gender was 57 males (35 castrated with 35 male), 70 females (35 contraceptives already) (Table 1). Methods: In all 127 cases, 5 mg/kg of roxithromycin alone was orally administered with meals every 12 hours for the first 30 days. For the next 30 days, pentoxifylline alone was orally administered at 25 mg/kg with meals every 12 hours. For the next 60 days, 5 mg/kg of roxithromycin and 25 mg/kg of pentoxifylline were orally administered simultaneously with meals every 12 hours. After that, administration of roxithromycin and pentoxifylline was discontinued and a follow-up study was conducted for 30 days. For all treatment periods, meals were allowed to feed freely without restriction. Also, shampoo was carried out at home once a week. Local corticosteroid therapy was performed at any time as long as there was a strong itching lesion After measurement, roxithromycin (RXM) was administered as a single agent for 30 days. After administration, CADLI index was measured to ascertain the skin condition, and it was judged whether roxithromycin has the ability to improve atopic dermatitis by comparing the change of numerical values before and after medication. Similarly, for pentoxifylline (PTX), it was estimated whether pentoxifylline has the effect of improving canine atopic dermatitis by measuring the CADLI index as an index and comparing the values before and after administration. Finally, for administration of roxithromycin and pentoxifylline in combination, the CADLI index was measured on the 30th and 60th days of administration, respectively, and the effect of the drug was evaluated by comparing the values.

canine atopic dermatitis [2] = conditions: 7 out of 37 dogs with canine atopic dermatitis; cited from earlier work
[3] = breed West Highland white terrier

SMILES	effect of improving clinical symptoms of canine atopic dermatitis (canine atopic dermatitis [1])	CADLI score, average value and standard error (canine atopic dermatitis [1]; age 4 years-6 years of age)	CADLI score, average value and standard error (canine atopic dermatitis [1]; age 7 years-9 years of age)	CADLI score, average value and standard error (canine atopic dermatitis [1]; age 10 years-12 years of age)	CADLI score, average value and standard error (canine atopic dermatitis [1]; age Over 13 years of age)	CADLI score, average value and standard error (canine atopic dermatitis [1]; age Under 3 years of age)	CADLI score, average value (standard error) (canine atopic dermatitis [1])	CADLI score, average value and standard error (canine atopic dermatitis [1]; breed Chihuahua)	CADLI score, average value and standard error (canine atopic dermatitis [1]; breed Miniature dachschund)	CADLI score, average value and standard error (canine atopic dermatitis [1]; breed Mongrel)	CADLI score, average value and standard error (canine atopic dermatitis [1]; breed Others)	CADLI score, average value and standard error (canine atopic dermatitis [1]; breed Pug)	CADLI score, average value and standard error (canine atopic dermatitis [1]; breed Shiba)	CADLI score, average value and standard error (canine atopic dermatitis [1]; breed Shih Tzu)	CADLI score, average value and standard error (canine atopic dermatitis [1]; breed Toy Poodle)	CADLI score, average value and standard error (canine atopic dermatitis [1]; breed Welsh Corgi)	CADLI score, average value and standard error (canine atopic dermatitis [1]; [3])	CADLI score, average value and standard error (canine atopic dermatitis [1]; breed Yorkshire Terrier)	CADLI score, average value and standard error (canine atopic dermatitis [1]; sex Castrated male)	CADLI score, average value and standard error (canine atopic dermatitis [1]; sex Female)	also measured
CC(=O)CCCCn1c(=O)c2c(ncn2C)n(C)c1=O [PTX, Pentoxifylline]	no therapeutic effect to improve atopic dermatitis in dogs; also recorded: unable to confirm the effect of improving the symptoms of atopic dermatitis in dogs	32.38 ± 3.01	32.95 ± 3.47	34.61 ± 2.84	31.68 ± 3.93	33.94 ± 4.74	33.09	31.00 ± 9.01	28.64 ± 4.11	36.00 ± 6.08	35.26 ± 3.66	35.60 ± 3.48	34.93 ± 4.45	32.94 ± 3.09	36.86 ± 5.42	31.50 ± 6.11	34.40 ± 7.91	22.29 ± 7.94	32.63 ± 2.87	32.43 ± 3.13	CADLI score, average value (standard error) (canine atopic dermatitis [1]; listed as pentoxifylline): 33.09±1.52; CADLI score, average value and standard error (canine atopic dermatitis [1]; sex Male): 35.41 ± 3.40; CADLI score, average value and standard error (canine atopic dermatitis [1]; sex Spayed female): 32.74 ± 2.98; patients in which single administration of pentoxifylline was effective (canine atopic dermatitis [2]): 19%
CC[C@H]1OC(=O)[C@H](C)[C@@H](O[C@H]2C[C@@](C)(OC)[C@@H](O)[C@H](C)O2)[C@H](C)[C@@H](O[C@@H]2O[C@H](C)C[C@H](N(C)C)[C@H]2O)[C@](C)(O)C[C@@H](C)/C(=N\OCOCCOC)[C@H](C)[C@@H](O)[C@]1(C)O [RXM, Roxithromycin]	did not seem to have sufficient therapeutic effect to improve atopic dermatitis in dogs; also recorded: no effect of improving canine atopic dermatitis	32.75 ± 2.82	33.55 ± 3.54	35.18 ± 2.89	32.32 ± 4.07	34.72 ± 4.91	33.64	31.67 ± 9.18	29.00 ± 4.24	36.57 ± 6.25	36.16 ± 3.50	35.30 ± 3.63	35.60 ± 4.44	33.39 ± 2.88	37.57 ± 5.51	31.50 ± 6.98	35.00 ± 8.08	23.00 ± 8.56	33.23 ± 2.97	32.71 ± 2.96	CADLI score, average value (standard error) (canine atopic dermatitis [1]; listed as roxithromycin): 33.64±1.51; CADLI score, average value and standard error (canine atopic dermatitis [1]; sex Male): 36.41 ± 3.28; CADLI score, average value and standard error (canine atopic dermatitis [1]; sex Spayed female): 33.23 ± 3.01
